From patent US20210017206A1, “PYRIDINONE AND PYRIMIDINONE PHOSPHATES AND BORONATES USEFUL AS ANTIBACTERIAL AGENTS” (Pfizer Inc., priority 2018, published 2021)
Converted amounts (≈) assume the structure as drawn.

Assays:
[1] = test system: Escherichia coli EC-1: VOGEL, mouse virulent; assay: MIC determination (CLSI), EC-1; type: cell-based; conditions: read-out: EC-1 MIC
Description: (§1) B) MIC determinations: The in vitro antibacterial activity of parent compounds of those described in the Examples was evaluated by minimum inhibitory concentration (MIC) testing according to Clinical and Laboratory Standards Institute (CLSI). See: Clinical and Laboratory Standards Institute. Methods for Dilution Antimicrobial Susceptibility Tests for Bacteria that Grow Aerobically; Approved Standard-Eighth Edition. CLSI document M7-A8 [ISBN 1-56238-689-1]. Clinical and Laboratory Standards Institute, 940 West Valley Road, Suite 1400, Wayne, Pa. 19087-1898 USA, 2006; also Clinical and Laboratory Standards Institute. Performance Standards for Antimicrobial Susceptibility Testing; Twentieth Informational Supplement. CLSI document M100-S20 [ISBN1-56238-716-2]. Clinical and Laboratory Standards Institute.
(§2) The MIC determination is a standard laboratory method for evaluating the antibacterial activity of a compound. The MIC represents the lowest drug concentration that inhibits visible growth of bacteria following overnight incubation. […] Typically, the drug concentration range is broken down into 2-fold increments (e.g. 0.06 μg/mL, 0.12 μg/mL. 0.25 μg/mL, 0.50 μg/mL, 1.0 μg/mL, etc.) and the various drug concentrations are all individually incubated overnight with approximately the same number of bacteria. The MIC is then determined by visually inspecting the drug effect at each concentration, and identifying the lowest drug concentration that has inhibited bacterial growth as compared to the drug free control. Typically, bacteria continue to grow at drug concentrations lower than the MIC and don't grow at concentrations at and above the MIC.
(§3) The MIC values described in Table 2 below were derived from assays wherein each test compound was evaluated in duplicate. In cases where the duplicate values varied by 0-2-fold, the lower of the two values was reported below. Generally speaking, if the duplicate values varied by more than 2-fold, the assay was considered non-valid and was repeated until the variation between duplicate runs was <2-fold. In line with the CLSI guidelines referred to above, both control organisms and reference compounds were utilized in each MIC assay to provide proper quality control. MIC values generated with these control organisms and reference compounds were required to fall within a defined range for the assay to be considered valid and be included herein. Those skilled in the art will recognize that MIC values can and do vary from experiment to experiment. […] While a single MIC is reported for each compound and each microorganism, the reader should not conclude that each compound was only tested once. Several of the compounds were subjected to multiple tests. The data reported in Table 2 is reflective of the compounds relative activity and different MICs may have been generated on these occasions in line with the guidelines described above.
(§4) The following bacterial strains were used in these MIC determinations:
3) Escherichia coli EC-1: VOGEL, mouse virulent labeled as EC-1 in Table 2;

[2] = test system: Acinetobacter baumannii/haemolyticus, multidrug-resistant clinical isolate (AB-3167); assay: MIC determination (CLSI), AB-3167; type: cell-based; conditions: lower of duplicate values
Description: as §1, §2, §3, §4
2) Acinetobacter baumannii/haemolyticus: Multidrug-resistant clinical isolate labeled as AB-3167 in Table 2;

[3] = test system: Pseudomonas aeruginosa UI-18, wild-type (PA-7); assay: MIC determination (CLSI), PA-7; type: cell-based; conditions: lower of duplicate values
Description: as §1, §2, §3, §4
1) Pseudomonas aeruginosa UI-18: Wild-type, labeled as PA-7 in Table 2;

[4] = target: T1, Pseudomonas aeruginosa LpxC enzyme (Pseudomonas aeruginosa, UniProt P47205); assay: IC50 assay, LpxC enzyme from P. aeruginosa (PA LpxC enzyme IC50); type: biochemical; conditions: P. aeruginosa LpxC 0.1 nM, 25° C., 1 hour, pH 8.0
T1 construct: made in house; host or cells: E. coli
T1 sequence (P47205 whole entry): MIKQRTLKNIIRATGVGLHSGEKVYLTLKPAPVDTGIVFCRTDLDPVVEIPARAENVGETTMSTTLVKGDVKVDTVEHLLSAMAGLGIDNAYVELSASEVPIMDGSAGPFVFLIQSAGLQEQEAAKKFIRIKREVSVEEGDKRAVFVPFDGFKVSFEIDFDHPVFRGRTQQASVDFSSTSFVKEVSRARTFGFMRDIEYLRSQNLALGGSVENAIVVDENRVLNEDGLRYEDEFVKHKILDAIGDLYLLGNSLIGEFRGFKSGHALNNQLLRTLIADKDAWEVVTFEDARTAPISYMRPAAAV
Description: In order to assess the compounds biological activity, selected in vitro assays were conducted on selected compounds. One of the assays measured the compounds ability to disrupt the synthesis of lipopolysaccharide, LPS, which is a component of the outer membrane of Gram-negative bacteria. Disruption of this synthesis is lethal to the bacteria. The assay determined the compound's ability to inhibit LpxC, which is the first enzyme in the biosynthetic pathway for LPS (measured as IC50). Additionally, MICs (minimal inhibitory concentrations) were determined for several bacteria. The specific protocols are described below:
A) IC50 Assay, LpxC Enzyme from P. aeruginosa (Labeled as PA LpxC Enzyme IC50):
At the end of 1 hour, 5 ul of 1 N HCl was added to stop the enzyme reaction, the plates were centrifuged, and then processed with the BioTrove Rapidfire HTMS Mass Spectrometry System. A no-enzyme control was used in calculating the IC50 values from the percent conversion values.

Structure (SMILES) | MIC [1] [µg/mL] | MIC [2] [µg/mL] | MIC [3] [µg/mL] | IC50 [4] [nM]
C[C@@](CCn1ccc(-c2ccc(-n3nccn3)cc2)cc1=O)(C(=O)NO)S(C)(=O)=O [(R)-4-(4-(4-(2H-1,2,3-Triazol-2-yl)phenyl)-2-oxopyridin-1(2H)-yl)-N-hydroxy-2-methyl-2-(methylsulfonyl)butanamide] | 0.06 (≈ 0.139 µM) | > 64 | 0.5 (≈ 1.16 µM) | 
C[C@@](CCn1ccc(-c2ccc(-c3nccs3)cc2)cc1=O)(C(=O)NO)S(C)(=O)=O [(2R)-N-hydroxy-2-methyl-2-(methylsulfonyl)-4-{2-oxo-4-[4-(1,3-thiazol-2-yl)phenyl]pyridin-1(2H)-yl}butanamide] | 0.06 (≈ 0.134 µM) | > 64 | 0.5 (≈ 1.12 µM) | 0.176
COc1cnn(-c2ccc(-c3ccn(CC[C@](C)(C(=O)NO)S(C)(=O)=O)c(=O)c3)cc2)n1 [(2R)-N-hydroxy-4-{4-[4-(4-methoxy-2H-1,2,3-triazol-2-yl)phenyl]-2-oxopyridin-1(2H)-yl}-2-methyl-2-(methylsulfonyl)butanamide] | 0.03 (≈ 0.065 µM) | > 64 | 0.5 (≈ 1.08 µM) | 0.125
COc1ccc(-c2ccn(CC[C@](C)(C(=O)NO)S(C)(=O)=O)c(=O)c2)c(F)c1F [(2R)-4-[4-(2,3-difluoro-4-methoxyphenyl)-2-oxopyridin-1(2H)-yl]-N-hydroxy-2-methyl-2-(methylsulfonyl)butanamide] | 0.015 (≈ 0.0348 µM) | > 64 | 1 (≈ 2.32 µM) | 0.166
C[C@@](CCn1cnc(-c2ccc(-n3nccn3)cc2)cc1=O)(C(=O)NO)S(C)(=O)=O [(2R)-N-hydroxy-2-methyl-2-(methylsulfonyl)-4-{6-oxo-4-[4-(2H-1,2,3-triazol-2-yl)phenyl]pyrimidin-1(6H)-yl}butanamide] | 0.06 (≈ 0.139 µM) | > 64 | 0.5 (≈ 1.16 µM) | 
